Experimental findings from patent publication US11034650B2, “Compounds useful for treating a Mannheimia haemolytica or Histophilus somni infection” (Intervet Inc., priority 2016, dated 2021) are described below.

Values after ≈ are worked out from the molar mass of the structure shown.

Format in all cases: cell-based
The test system of test [1] is Mannheimia haemolytica MH 10720 (154, BRD field isolate). As to the kind of experiment: MIC, broth-microdilution (CLSI VET01-A4), strain MH 10720. The conditions noted are these: Mannheimia haemolytica strain MH 10720, broth-microdilution; unit assumed. Summed up: (§1)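 Serial twofold dilutions; unaided-eye turbidity scoring; lowest clear well = MIC.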
Test [2] deals with Pasteurella multocida PM 10775 (080130003051, BRD field isolate). As to the kind of experiment: MIC, broth-microdilution (CLSI VET01-A4), strain PM 10775. The conditions noted are these: Pasteurella multocida strain PM 10775, broth-microdilution; unit assumed. Summed up: as §1
Test [3] deals with Mannheimia haemolytica MH 13065 (XB0446-6003.9, BRD field isolate). As to the kind of experiment: MIC, broth-microdilution (CLSI VET01-A4), strain MH 13065. The conditions noted are these: Mannheimia haemolytica strain MH 13065, broth-microdilution; unit assumed. Summed up:
as §1

Test [4] has as its system Pasteurella multocida PM 12080 (IV102277-0093, BRD field isolate). As to the kind of experiment: MIC, broth-microdilution (CLSI VET01-A4), strain PM 12080. The conditions noted are these: Pasteurella multocida strain PM 12080, broth-microdilution; unit assumed. In a few lines: as §1
In test [5] the test system is Mannheimia haemolytica MH 6357 (M7/2, reference strain, cattle infection strain). Kind of test: MIC, broth-microdilution (CLSI VET01-A4), strain MH 6357. The settings on record: Mannheimia haemolytica strain MH 6357, broth-microdilution; unit assumed. Summed up: as §1
Test [6] deals with Mannheimia haemolytica MH 12587 (1071, BRD field isolate, macrolide-resistance: erm+, E+). As to the kind of experiment: MIC, broth-microdilution (CLSI VET01-A4), strain MH 12587. The conditions noted are these: Mannheimia haemolytica strain MH 12587, broth-microdilution; unit assumed. In a few lines: as §1
Test [7] deals with Mannheimia haemolytica MH 13093 (XB0472-6014.1, BRD field isolate). As to the kind of experiment: MIC, broth-microdilution (CLSI VET01-A4), strain MH 13093. The conditions noted are these: Mannheimia haemolytica strain MH 13093, broth-microdilution; unit assumed. Summed up: as §1
For test [8], the system named is Mannheimia haemolytica MH 6374 (ATCC 33396, reference strain). Kind of test: MIC, broth-microdilution (CLSI VET01-A4), strain MH 6374. The settings on record: Mannheimia haemolytica strain MH 6374, broth-microdilution; unit assumed. In a few lines: as §1
The test system of test [9] is Pasteurella multocida PM 6267 (P 2225 (L386), reference strain, mouse infection strain). Kind of test: MIC, broth-microdilution (CLSI VET01-A4), strain PM 6267. The conditions noted are these: Pasteurella multocida strain PM 6267, broth-microdilution; unit assumed. Summed up: as §1
Test [10] deals with Pasteurella multocida PM 6391 (ATCC 43137, reference strain). As to the kind of experiment: MIC, broth-microdilution (CLSI VET01-A4), strain PM 6391. The conditions noted are these: Pasteurella multocida strain PM 6391, broth-microdilution; unit assumed. Summed up: as §1

In test [1], `CSC(C)(C)[C@H](NC(=O)c1ccc(C#Cc2ccc(CNCc3cccnc3)s2)cc1)C(=O)NO` [Compound 306] displayed an MIC MH 10720 of 0.2 µg/mL (≈ 0.393 µM). Also, in test [2], the MIC PM 10775 was at most 0.1 µg/mL. The same compound yielded an MIC MH 13065 in [3] of 0.8 µg/mL (≈ 1.57 µM). Further, the MIC PM 12080 in test [4] stood at 0.4 µg/mL (≈ 0.786 µM). The compound further returned an MIC MH 6357 in test [5] of 0.8 µg/mL (≈ 1.57 µM). In addition, in test [6], the MIC MH 12587 amounted to 3.1 µg/mL (≈ 6.09 µM). In [7], the MIC MH 13093 came to 0.8 µg/mL (≈ 1.57 µM). The MIC MH 6374 in test [8] was found to be 0.8 µg/mL (≈ 1.57 µM). The MIC PM 6267 in test [9] came to 0.8 µg/mL (≈ 1.57 µM). The compound also registered an MIC PM 6391 in test [10] of 0.4 µg/mL (≈ 0.786 µM).

Turning to `CSC(C)(C)[C@H](NC(=O)c1ccc(C#Cc2ccc(CNCc3ccccn3)s2)cc1)C(=O)NO` [Compound 307], in test [1], the MIC MH 10720 is at most 0.1 µg/mL. Moreover, the MIC PM 10775 in test [2] was at most 0.1 µg/mL. In addition, the MIC MH 13065 in test [3] was determined as 0.8 µg/mL (≈ 1.57 µM). The compound also yielded an MIC PM 12080 in test [4] of 0.4 µg/mL (≈ 0.786 µM). Besides, the MIC MH 6357 in test [5] was determined as 0.8 µg/mL (≈ 1.57 µM). This compound also yielded an MIC MH 12587 in test [6] of 1.6 µg/mL (≈ 3.15 µM). Further, in [7], the MIC MH 13093 came out at 1.6 µg/mL (≈ 3.15 µM). This compound also returned an MIC MH 6374 in [8] of 0.8 µg/mL (≈ 1.57 µM). In addition, in test [9], the MIC PM 6267 came out at 0.8 µg/mL (≈ 1.57 µM). Also, the MIC PM 6391 in test [10] came to 0.4 µg/mL (≈ 0.786 µM).

Turning to `CSC(C)(C)[C@H](NC(=O)c1ccc(C#Cc2ccc(CNCc3ccco3)s2)cc1)C(=O)NO` [Compound 308], the MIC MH 10720 in test [1] is at most 0.1 µg/mL. The MIC PM 10775 in test [2] is at most 0.1 µg/mL. This compound also displayed an MIC MH 13065 in test [3] of 0.8 µg/mL (≈ 1.61 µM). The same compound displayed an MIC PM 12080 in test [4] of 0.4 µg/mL (≈ 0.804 µM). The MIC MH 6357 in test [5] worked out at 0.8 µg/mL (≈ 1.61 µM). In addition, the MIC MH 12587 in test [6] is 1.6 µg/mL (≈ 3.22 µM). The MIC MH 13093 in test [7] is 1.6 µg/mL (≈ 3.22 µM). The MIC MH 6374 in test [8] is 0.8 µg/mL (≈ 1.61 µM). The compound further registered an MIC PM 6267 in [9] of 0.8 µg/mL (≈ 1.61 µM). Further, the MIC PM 6391 in [10] turned out to be 0.4 µg/mL (≈ 0.804 µM).

Consider `CSC(C)(C)[C@H](NC(=O)c1ccc(C#Cc2ccc(CNCC(F)(F)F)s2)cc1)C(=O)NO` [Compound 309], for which the MIC MH 10720 in test [1] is at most 0.1 µg/mL. The compound further displayed an MIC PM 10775 in test [2] of at most 0.1 µg/mL. In test [3], this compound gave an MIC MH 13065 of 0.8 µg/mL (≈ 1.6 µM). In test [4], this compound registered an MIC PM 12080 of 0.4 µg/mL (≈ 0.801 µM). In addition, the MIC MH 6357 in [5] was 0.8 µg/mL (≈ 1.6 µM). In [6], this compound displayed an MIC MH 12587 of 1.6 µg/mL (≈ 3.2 µM). The compound also gave an MIC MH 13093 in [7] of 1.6 µg/mL (≈ 3.2 µM). Further, the MIC MH 6374 in test [8] stood at 0.8 µg/mL (≈ 1.6 µM). The MIC PM 6267 in [9] is 1.6 µg/mL (≈ 3.2 µM). The compound further showed an MIC PM 6391 in [10] of 0.4 µg/mL (≈ 0.801 µM).

For the compound `CSC(C)(C)[C@H](NC(=O)c1ccc(C#Cc2ccc(CNCc3ncc(C)o3)s2)cc1)C(=O)NO` [Compound 310], the MIC MH 10720 in [1] is 0.4 µg/mL (≈ 0.78 µM). The compound further yielded an MIC PM 10775 in test [2] of 0.4 µg/mL (≈ 0.78 µM). In test [3], this compound returned an MIC MH 13065 of 1.6 µg/mL (≈ 3.12 µM). In test [4], this compound had an MIC PM 12080 of 0.8 µg/mL (≈ 1.56 µM). Moreover, the MIC MH 6357 in test [5] was 1.6 µg/mL (≈ 3.12 µM). The MIC MH 12587 in test [6] was found to be 3.1 µg/mL (≈ 6.05 µM). The same compound showed an MIC MH 13093 in test [7] of 1.6 µg/mL (≈ 3.12 µM). The compound further showed an MIC MH 6374 in [8] of 0.8 µg/mL (≈ 1.56 µM). Also, the MIC PM 6267 in test [9] is 1.6 µg/mL (≈ 3.12 µM). In test [10], this compound displayed an MIC PM 6391 of 0.4 µg/mL (≈ 0.78 µM).

In turn, `C=CCNCc1ccc(C#Cc2ccc(C(=O)N[C@H](C(=O)NO)C(C)(C)S(C)(=O)=O)cc2)s1` [Compound 312] registered an MIC MH 10720 in [1] of at most 0.1 µg/mL. Also, the MIC PM 10775 in test [2] was at most 0.1 µg/mL. The compound also had an MIC MH 13065 in test [3] of 0.4 µg/mL (≈ 0.817 µM). The MIC PM 12080 in [4] was at most 0.1 µg/mL. The compound further had an MIC MH 6357 in [5] of 0.4 µg/mL (≈ 0.817 µM). In addition, the MIC MH 12587 in test [6] amounted to 0.8 µg/mL (≈ 1.63 µM). This compound had an MIC MH 13093 in test [7] of 0.8 µg/mL (≈ 1.63 µM). This compound gave an MIC MH 6374 in [8] of 0.4 µg/mL (≈ 0.817 µM). Also, the MIC PM 6267 in test [9] is 0.4 µg/mL (≈ 0.817 µM). In addition, the MIC PM 6391 in test [10] was at most 0.1 µg/mL.

Compound `CC(C)([C@H](NC(=O)c1ccc(C#Cc2ccc(CN3CCOCC3)s2)cc1)C(=O)NO)S(C)(=O)=O` [Compound 314] had an MIC MH 10720 in [1] of at most 0.1 µg/mL. Moreover, in test [2], the MIC PM 10775 is at most 0.1 µg/mL. The same compound gave an MIC MH 13065 in test [3] of 0.4 µg/mL (≈ 0.77 µM). This compound also came in with an MIC PM 12080 in [4] of at most 0.1 µg/mL. The compound also gave an MIC MH 6357 in [5] of 0.4 µg/mL (≈ 0.77 µM). Further, the MIC MH 12587 in test [6] is 0.8 µg/mL (≈ 1.54 µM). The compound also had an MIC MH 13093 in test [7] of 0.8 µg/mL (≈ 1.54 µM). In [8], the MIC MH 6374 is 1.6 µg/mL (≈ 3.08 µM). The compound also registered an MIC PM 6267 in test [9] of 0.4 µg/mL (≈ 0.77 µM). The compound also gave an MIC PM 6391 in test [10] of at most 0.1 µg/mL.

For the compound `CC(C)([C@H](NC(=O)c1ccc(C#Cc2ccc(CNCc3ccccc3)s2)cc1)C(=O)NO)S(C)(=O)=O` [Compound 315], the MIC MH 10720 in test [1] is at most 0.1 µg/mL. For the same compound, in test [2], the MIC PM 10775 was at most 0.1 µg/mL. The compound also showed an MIC MH 13065 in [3] of at most 0.1 µg/mL. The compound further registered an MIC PM 12080 in test [4] of at most 0.1 µg/mL. Further, in [5], the MIC MH 6357 is at most 0.1 µg/mL. Besides, the MIC MH 12587 in test [6] amounted to 0.4 µg/mL (≈ 0.741 µM). The compound also gave an MIC MH 13093 in test [7] of 0.4 µg/mL (≈ 0.741 µM). The compound further registered an MIC MH 6374 in test [8] of at most 0.1 µg/mL. Also, the MIC PM 6267 in [9] amounted to 0.2 µg/mL (≈ 0.371 µM). The compound further registered an MIC PM 6391 in test [10] of at most 0.1 µg/mL.
